# Laboratory results: patent US20240238244A1, “USE OF A COMPOUND SUCH AS […] TREATING A VIRAL PULMONARY DISEASE” (4LIVING BIOTECH, priority 2021, published 2024)
# Several values for one entry are separate records, joined by “and”; a condition that tells them apart may be missing. Identical values can stand only once. Like-named read-outs stand apart in the source and are kept apart here.
# Legend:
# [1] = tested on: H3N2 influenza A virus strain Scotland/20/74; conditions: day 7; for Mean necrosis/cell death score: Influenza group 0.90; for Mean edema/HM/congestion score: Influenza group 1.50; for Mean inflammation score: Influenza group 1.90; for Mean total score according to Meyerholz and Beck: Influenza group 4.50
# [2] = tested on: H3N2 influenza A virus strain Scotland/20/74; conditions: day 7; for Percentage of fibrocytes recruited in the lung: Infected group 28.05±26.78%, Not-infected 7.58±1.70%
# Procedure: Treatments were administered twice a day subcutaneously (SC) in mice from day 1 to day 6 by grasping the skin along back of mice. The needle was inserted at base of skin old between thumb and finger and solution was injected. Plerixafor® was administered (100 μl) twice a day to group “Infected+Plerixafor 1 mg/kg”, “Infected+Plerixafor 3 mg/kg”, and “Infected+Plerixafor 10 mg/kg”. Thus, mice received daily 1, 3 and 10 mg/kg for 7 days for group “Infected+Plerixafor 1 mg/kg”, “Infected+Plerixafor 3 mg/kg”, and “Infected+Plerixafor 10 mg/kg” respectively. Group “Infected” received water twice a day (100 μl).
# The percentage of general fibrocytes was evaluated in lung by flow cytometry analysis. The proportion of fibrocytes was assessed using a combination of Antibody/Fluorochrome, i.e. CD45+, FSP1+, and their viability was assessed using the Live Dead cell viability assay. For each tested condition, a general gating strategy was followed to identify the different sub-populations. First, cells of interest were selected according to granulometry and size events via the FSC-H (Forward Scatter Height) and SSC-H (Side Scatter Height) parameters. Then, on the selected cells, fibrocytes were identified as CD45+/FSP1+ cells.
# The percentage of fibrocytes recruited in the lung was evaluated at day 7 for 4 mice per group (3 for non-infected group).
# [3] = tested on: H3N2 influenza A virus strain Scotland/20/74; conditions: day 7; for Mean IL-17 levels in lung homogenates: Influenza group 575.58, non-infected 874.47; for Mean IL-1β levels in lung homogenates: Influenza group 3502.64, non-infected 1347.22; for Mean TNFα levels in lung homogenates: Influenza group 11038.49, non-infected 11879.58; for Mean IL-6 levels in lung homogenates: Influenza group 15055.10, non-infected 2412.49; for Mean C5a levels in lung homogenates: Influenza group 3758066.67, non-infected 2540416.67; for Mean CRP levels in lung homogenates: Influenza group 9243070.24, non-infected 2718616.67
# [4] = tested on: H3N2 influenza A virus strain Scotland/20/74
# [5] = Plerixafor 2.5 mg/kg daily SC (group 3M)
# [6] = Plerixafor 5 mg/kg daily SC (group 4M)
# [7] = Plerixafor 10 mg/kg daily SC (group 5M)
# [8] = Plerixafor 20 mg/kg daily SC (group 6M)
# [9] = Plerixafor 20 mg/kg daily SC (group 6M), p<0.01
# [10] = Plerixafor at 2, 5, 5, 10 and 20 mg/kg
# [11] = Plerixafor at 2, 5, 5 and 10 mg/kg
structure (smiles),measurement,setting,value
"c1cc(CN2CCCNCCNCCCNCC2)ccc1CN1CCCNCCNCCCNCC1 [Plerixafor, 1,1′-[1,4-phenylene-bis(methylene)]-bis-1,4,8,11-tetraazacyclotetradecane]",Mean necrosis/cell death score,[1]; [5],0.50
same,Mean edema/HM/congestion score,[1]; [5],0.70
same,Mean inflammation score,[1]; [5],1.40
same,Mean total score according to Meyerholz and Beck,[1]; [5],2.70
same,Mean necrosis/cell death score,[1]; [6],0.80
same,Mean edema/HM/congestion score,[1]; [6],0.90
same,Mean inflammation score,[1]; [6],2.00
same,Mean total score according to Meyerholz and Beck,[1]; [6],4.00
same,Mean necrosis/cell death score,[1]; [7],0.50
same,Mean edema/HM/congestion score,[1]; [7],0.50
same,Mean inflammation score,[1]; [7],1.70
same,Mean total score according to Meyerholz and Beck,[1]; [7],2.90
same,Mean necrosis/cell death score,[1]; [8],0.40±0.70 and 0.40
same,Mean edema/HM/congestion score,[1]; [8],0.60±0.52 and 0.60
same,Mean inflammation score,[1]; [8],1.60±1.17 and 1.60
same,Mean total score according to Meyerholz and Beck,[1]; [8],2.80±2.35 and 2.80
same,"Severity, distribution and incidence of pulmonary lesions in comparison to influenza treated mice","[1]; groups 3M, 4M, 5M and 6M (Plerixafor 2.5, 5, 10, 20 mg/kg daily SC)",slightly lower
same,Percentage of fibrocytes recruited in the lung,[2]; Infected+Plerixafor 1 mg/kg daily SC,19.77±19.93%
same,Percentage of fibrocytes recruited in the lung,[2]; Infected+Plerixafor 3 mg/kg daily SC,12.90±5.44%
same,Percentage of fibrocytes recruited in the lung,[2]; Infected+Plerixafor 10 mg/kg daily SC,23.86±18.39%
same,Effect on the recruitment of fibrocytes in the lung,"[2]; whatever the Plerixafor dosage tested (1, 3, 10 mg/kg daily), no dose-effect",does not affect significantly
same,Mean IL-17 levels in lung homogenates,[3]; [5],748.08 pg/ml/g of tissue
same,Mean IL-1β levels in lung homogenates,[3]; [5],4317.27 pg/ml/g of tissue
same,Mean TNFα levels in lung homogenates,[3]; [5],8983.01 pg/ml/g of tissue
same,Mean IL-6 levels in lung homogenates,[3]; [5],11166.93 pg/ml/g of tissue
same,Mean C5a levels in lung homogenates,[3]; [5],3699919.44 pg/ml/g of tissue
same,Mean CRP levels in lung homogenates,[3]; [5],9241738.89 pg/ml/g of tissue
same,Mean IL-17 levels in lung homogenates,[3]; [6],663.57 pg/ml/g of tissue
same,Mean IL-1β levels in lung homogenates,[3]; [6],2534.11 pg/ml/g of tissue
same,Mean TNFα levels in lung homogenates,[3]; [6],9307.38 pg/ml/g of tissue
same,Mean IL-6 levels in lung homogenates,[3]; [6],11059.46 pg/ml/g of tissue
same,Mean C5a levels in lung homogenates,[3]; [6],3440259.52 pg/ml/g of tissue
same,Mean CRP levels in lung homogenates,[3]; [6],7792352.38 pg/ml/g of tissue
same,Mean IL-17 levels in lung homogenates,[3]; [7],799.98 pg/ml/g of tissue
same,Mean IL-1β levels in lung homogenates,[3]; [7],3319.66 pg/ml/g of tissue
same,Mean TNFα levels in lung homogenates,[3]; [7],11138.01 pg/ml/g of tissue
same,Mean IL-6 levels in lung homogenates,[3]; [7],13927.98 pg/ml/g of tissue
same,Mean C5a levels in lung homogenates,[3]; [7],3519038.68 pg/ml/g of tissue
same,Mean CRP levels in lung homogenates,[3]; [7],8406400.43 pg/ml/g of tissue
same,Mean IL-17 levels in lung homogenates,[3]; [8],603.22 pg/ml/g of tissue
same,Mean IL-1β levels in lung homogenates,[3]; [8],2805.78 pg/ml/g of tissue
same,Mean TNFα levels in lung homogenates,[3]; [8],6224.51±3014.54 pg/ml/g of tissue and 6224.51 pg/ml/g of tissue
same,Mean IL-6 levels in lung homogenates,"[3]; Plerixafor 20 mg/kg daily SC (group 6M), p<0.05",5408.82±3539.57 pg/ml/g of tissue and 5408.82 * pg/ml/g of tissue
same,Mean C5a levels in lung homogenates,[3]; [9],2220172.76±972810.94 pg/ml/g of tissue and 2220172.76 pg/ml/g of tissue
same,Mean CRP levels in lung homogenates,[3]; [9],4488307.08±2059120.87 pg/ml/g of tissue and 4488307.08 pg/ml/g of tissue
same,Modulation of IL-1β levels,[3]; [10],did not significantly modulate
same,Modulation of IL-17 levels,[3]; [10],did not significantly modulate
same,Modulation of C5a levels,[3]; [11],did not significantly modulate
same,Modulation of IL-6 levels in comparison to Influenza group,[3]; [11],did not significantly modulate
same,Modulation of TNFα levels,[3]; [11],did not significantly modulate
same,Modulation of CRP levels,"[3]; Plerixafor at 2.5, 5 and 10 mg/kg",did not significantly modulate
same,BW (body weight) 7 days after the infection,"[4]; Plerixafor 20 mg/kg daily (10 mg/kg SC twice a day, day 1 to 6), day 7, influenza group 94±5%, non-infected 103±4%, p<0.05",97±5%
same,Modulation of BW loss,"[4]; Plerixafor at doses inferior or equal to 10 mg/kg daily, SC twice a day, day 1 to 6",did not modulate BW loss
